Experiments:
mean blood pressure = test: Antihypertensive activity: mean blood pressure (MBP) after oral administration in SHR rats, intraarterial measurement; format: in vivo, rat (SHR); settings: single dose, limits P = 0.05, calculated from dose-response regression line; for ED25 and limits (dose lowering mean blood pressure of 25 mmHg): p.o.
Description: Intrarterial measurements of mean blood pressure (MBP) were performed through catheters (PE 50, Clay Adams) implanted in the rat (SHR) right carotid artery under alothane anesthesia. Twenty four hours after surgery, the animals were placed in Ballman cages and the arterial cannula was connected via a pressure transducer to a Beckman blood pressure recorder for continuous monitoring of mean blood pressure.
MBP was recorded before the oral administration (basal values) and 15-30-60-120-240 minutes till 24 hours after treatment. Groups of 7-8 rats were orally treated with a single dose of the test compound or vehicle, methocel 0.5% w/v (0.2 ml/100 g b.w.). The ED25 was calculated for each compound from the dose-response regression line.
As reference standard drug, captopril was also tested.

male mice = test: Orientative toxicity after oral treatment in male mice, seven days observation; format: in vivo; settings: p.o., observed for seven days, 10080 min
Excerpt: (§1) Three male mice for each group were orally treated with drugs at different dose levels for the determination of orientative toxicity.

[1] = as above; format: in vivo; settings: mouse, in vivo, po, observed for seven days
Excerpt: as §1

| Compound | ED25 and limits (dose lowering mean blood pressure of 25 mmHg) (mean blood pressure) | LD50 (male mice) [mg/kg] | ED (25 mmHg) (mean blood pressure; Rattus norvegicus, po, read-out: ED25 and limits (dose lowering mean blood pressure of 25 mmHg)) [mg/kg] | LD50 at 168 h [1] [mg/kg] |
| --- | --- | --- | --- | --- |
| 1-[[5-(10→9)abeo-9,10-didehydro-6-methylergolin-8β-yl]methyl]- 2,4-(1H,3H)-pyrimidinedione [FCE 24379] | 1.229 (0.661-1.845) mg.kg^-1 | > 800 | – | – |
| 1-[[5-(10→9)abeo-9,10-didehydro-6-methylergolin-8β-yl]methyl]- 2,4-(1H,3H)-pyrimidinedione-N6 -oxide [FCE 24778] | 0.402 (0.297-0.511) mg.kg^-1 | > 800 | – | – |
| C[C@H](CS)C(=O)N1CCC[C@H]1C(=O)O [Captopril, captopril, reference compound] | – | – | 13.7 | > 800 |
| CN1C[C@H](CN2CC(=O)NC2=O)C2=Cc3cccc4[nH]cc(c34)C[C@H]21 [FCE 24378, 1-[[5(10→9)abeo-9,10-didehydro-6-methylergolin-8β-yl]methyl]-2,4-imidazolidinedione] | 2.051 (1.180-2.971) mg.kg^-1 | > 800 | – | – |
| C[N+]1([O-])C[C@H](CN2CC(=O)NC2=O)C2=Cc3cccc4[nH]cc(c34)C[C@H]21 (stereo partly drawn) [FCE 25068, 1-[[5(10→9)abeo-9,10-didehydro-6-methylergolin-8β-yl]methyl]-2,4-imidazolidinedione-N6-oxide] | 4.272 (3.256-5.514) mg.kg^-1 | > 800 | – | – |
